Results as given in ChEMBL document CHEMBL3046759, “Seed and leaf treatments with natural compounds to induce resistance against Peronospora parasitica in Brassica oleracea” (2012).
The source made the active and inactive calls. The rule behind the calls is not given here.

Key:
[1] = test system: Hyaloperonospora parasitica; test: Induction of systemic acquired resistance against Hyaloperonospora parasitica-induced downy mildew disease in white cabbage assessed as infected leaf area at 1 mM sprayed on leaves of one week old seedlings relative to untreated control; format: functional, organism-based
[2] = test system: Hyaloperonospora parasitica; test: Induction of systemic acquired resistance against Hyaloperonospora parasitica-induced downy mildew disease in white cabbage assessed as infected leaf area sprayed on leaves of one week old seedlings relative to untreated control; format: functional
Brassica oleracea [3] = test: Induction of systemic acquired resistance in Brassica oleracea (white cabbage) plants assessed as increase in glucanase activity at 10 mM sprayed on seeds by colorimetric assay; format: functional, organism-based
Brassica oleracea [4] = test: Induction of systemic acquired resistance in Brassica oleracea (white cabbage) plants assessed as increase in chitinase activity at 10 mM sprayed on leaves of 3 weeks old seedlings by colorimetric assay; format: functional, organism-based
Brassica oleracea [5] = test: Induction of systemic acquired resistance in Brassica oleracea (white cabbage) plants assessed as increase in glucanase activity at 10 mM sprayed on leaves of 3 weeks old seedlings by colorimetric assay; format: functional, organism-based
Brassica oleracea [6] = test: Induction of systemic acquired resistance in Brassica oleracea (white cabbage) plants assessed as increase in chitinase activity at 10 mM sprayed on seeds by colorimetric assay; format: functional, organism-based
Brassica oleracea [7] = test: Induction of systemic acquired resistance in Brassica oleracea (white cabbage) plants assessed as increase in glucanase activity at 1 mM sprayed on leaves exposed to compound for 2 to 48 hr measured 10 days after planting by colorimetric assay; format: functional, organism-based; details: TDE = time-dependent effect
Brassica oleracea [8] = test: Induction of systemic acquired resistance in Brassica oleracea (white cabbage) plants assessed as increase in glucanase activity at 1 mM sprayed on seeds by colorimetric assay; format: functional, organism-based
Brassica oleracea [9] = test: Induction of systemic acquired resistance in Brassica oleracea (white cabbage) plants assessed as increase in chitinase activity at 1 mM sprayed on seeds by colorimetric assay; format: functional, organism-based
Brassica oleracea [10] = test: Induction of systemic acquired resistance in Brassica oleracea (white cabbage) plants assessed as increase in glucanase activity at 1 mM sprayed on leaves of 3 weeks old seedlings by colorimetric assay; format: functional, organism-based
Brassica oleracea [11] = test: Induction of systemic acquired resistance in Brassica oleracea (white cabbage) plants assessed as increase in chitinase activity at 1 mM sprayed on leaves of 3 weeks old seedlings by colorimetric assay; format: functional, organism-based
[12] = test system: Hyaloperonospora parasitica; test: Induction of systemic acquired resistance against Hyaloperonospora parasitica-induced downy mildew disease in white cabbage assessed as disease index at 1 mM sprayed on leaves exposed to compound for 2 to 48 hr measured 10 days after planting; format: functional, organism-based; details: TDE = time-dependent effect
Brassica oleracea [13] = test: Induction of systemic acquired resistance in Brassica oleracea (white cabbage) plants assessed as increase in chitinase activity at 1 mM sprayed on leaves exposed to compound for 2 to 48 hr measured 10 days after planting by colorimetric assay; format: functional, organism-based; details: TDE = time-dependent effect

For CUPRIC SULFATE, the Activity [1] was 0.01%.
CCCOC(=O)NCCCN(C)C.Cl [PROPAMOCARB HYDROCHLORIDE] gave an Activity [2] of 56.4%.
With MANGANESE CHLORIDE ANHYDROUS the Activity (Brassica oleracea [3]) was “inactive”, the Activity (Brassica oleracea [4]) was “Active” and the Activity (Brassica oleracea [5]) was “Active”. The Activity (Brassica oleracea [6]) was “inactive”.
With O=C(O)c1cc(Cl)nc(Cl)c1 the Activity (Brassica oleracea [7]) was “tde”, the Activity (Brassica oleracea [8]) was “Active” and the Activity (Brassica oleracea [9]) was “Active”. For the same compound, the Activity (Brassica oleracea [10]) was “Active”, the Activity (Brassica oleracea [11]) was “Active” and the Activity [12] was “tde”. The Activity (Brassica oleracea [13]) was “tde”.
